Test results from article PMC7694037, “Quinolizidine-Derived Lucanthone and Amitriptyline Analogues Endowed with Potent Antileishmanial Activity” (Pharmaceuticals, 2020).

Experiments:
[1] = test system: Leishmania tropica promastigotes; assay: Antileishmanial activity against L. tropica promastigotes (MTT assay); conditions: for IC50: Leishmania tropica, 72 h, read-out: IC50 L. tropica, promastigotes, MTT, 72 h, IC50 ± SD; for Ratio IC50 Miltef./IC50 Compd. (L. tropica): ratio between IC50 of miltefosine and that of each compound, L. tropica promastigotes
Protocol: (§3) Promastigote stage of L. infantum strain MHOM/TN/80/IPT1 (kindly provided by Dr. M. Gramiccia, ISS, Roma) and L. tropica (MHOM/SY/2012/ISS3130) were cultured in RPMI 1640 medium (EuroClone) supplemented with 10% heat-inactivated fetal calf serum (EuroClone, Milan Italy), 20 mM Hepes and 2 mM L-glutamine at 24 °C. […] Compounds were dissolved in DMSO and then diluted with medium to achieve the required concentrations. Drugs were placed in 96 wells round-bottom microplates and seven serial dilutions made. Miltefosine was used as reference anti-Leishmania drug. Parasites were diluted in complete medium to 5 × 10^6 parasites/mL and 100 μL of the suspension was seeded into the plates, incubated at 24 °C for 72 h and then 20 µL of MTT solution (5 mg/mL) was added into each well for 3 h. The plates were then centrifuged, the supernatants were discarded and the resulting pellets were dissolved in 100 µL of lysing buffer consisting of 20% (w/v) of a solution of SDS (Sigma), 40% DMF (Merck, Milan Italy) in H2O. The absorbance was measured spectrophotometrically at a test wavelength of 550 nm and a reference wavelength of 650 nm.

[2] = test system: L. infantum promastigotes; assay: Antileishmanial activity against L. infantum promastigotes (MTT assay); conditions: for IC50: Leishmania infantum, 72 h, read-out: IC50 L. infantum; for Ratio IC50 Miltef./IC50 Compd. (L. infantum): ratio between IC50 of miltefosine and that of each compound, L. infantum promastigotes
Protocol: as §3

[3] = Cytotoxicity against Vero-76 cells (crystal violet staining); format: cell-based, Cercopithecus Aethiops; conditions: Cercopithecus aethiops (African green monkey)
Protocol: (§1) The cytotoxicity of lucanthone was also tested for comparison. […] The relevant selectivity index (SI)—a parameter that quantifies the preferential antileishmanial activity of a compound in relation to mammalian cell toxicity (CC50/IC50)—is tabulated in Table 2. […] The replacement of the 4-methyl substituent with an amino group in compound 14, while preserving good antileishmanial activity, led to a further substantial decrease of cytotoxicity, with a resultantly safer profile (SI = 16.2 and 16.9 for the two Leishmania species).
(§2) Vero-76 cells (ATCC CRL 1587 Cercopithecus Aethiops) were seeded at an initial density of 4 × 10^5 cells/mL in 24-well plates, in culture medium (Dulbecco’s modified eagle’s medium (D-MEM) with L-glutamine, supplemented with fetal bovine serum (FBS), 0.025 g/L kanamycin). Cell cultures were then incubated at 37 °C in a humidified, 5% CO2 atmosphere in the absence or presence of serial dilutions of test compounds. Cell viability was determined after 48–96 h at 37 °C by the Crystal violet staining method. The results are expressed as CC50, which is the concentration of compound necessary to inhibit cell growth by 50%. Each CC50 value is the mean and standard deviation of at least three separate experiments performed in duplicate.

Vero-76 cells = assay: as above; format: cell-based, Cercopithecus Aethiops
Protocol: as §1, §2

[4] = i.p., doses up to 200–350 mg/kg, once a day for five consecutive days, mice inoculated with leukemia P388 cells; cited from earlier work

Compound	IC50 [1] [µM]	Ratio IC50 Miltef./IC50 Compd. (L. tropica) [1]	IC50 [2] [µM]	Ratio IC50 Miltef./IC50 Compd. (L. infantum) [2]	CC50 [3] [µM]	S.I. L. infantum (Vero-76 cells; CC50 Vero-76 / IC50 L. infantum promastigotes)	S.I. L. tropica (Vero-76 cells; CC50 Vero-76 / IC50 L. tropica promastigotes)	mortality [4]
Cc1ccc(NCCC2CCCN3CCCCC23)c2c(=O)c3ccccc3sc12 (centres unmarked) [Compound 2]	6.27 ± 2.75	6.9	10.6 ± 3.78	2.95	22.9 ± 2.3	2.2	3.7	
Cc1ccc(NCCCC2CCCN3CCCCC23)c2c(=O)c3ccccc3sc12 (centres unmarked) [Compound 3]	8.89 ± 3.02	4.87	17.2 ± 1.31	1.8				
COc1ccc2sc3c(C)ccc(NCC4CCCN5CCCCC45)c3c(=O)c2c1 (centres unmarked) [Compound 5]	8.16 ± 5.23	5.3	8.99 ± 3.86	3.5				no mortality
COc1ccc2sc3c(C)ccc(NCCCC4CCCN5CCCCC45)c3c(=O)c2c1 (centres unmarked) [Compound 7]	12 ± 5.24	3.6	19.7 ± 5.79	1.6				
O=c1c2ccccc2sc2c([N+](=O)[O-])ccc(NCC3CCCN4CCCCC34)c12 (centres unmarked) [Compound 8]	19.2 ± 9.33	2.25	38.7 ± 7.67	0.8				
O=c1c2ccccc2sc2c([N+](=O)[O-])ccc(NCCC3CCCN4CCCCC34)c12 (centres unmarked) [Compound 9]	4.64 ± 1.12	9.3	9.39 ± 4.34	3.3				no mortality
O=c1c2ccccc2sc2c([N+](=O)[O-])ccc(NCCCC3CCCN4CCCCC34)c12 (centres unmarked) [Compound 10]	11.1 ± 3.3	3.9	22.3 ± 3.3	1.4				
COc1ccc2sc3c([N+](=O)[O-])ccc(NCC4CCCN5CCCCC45)c3c(=O)c2c1 (centres unmarked) [Compound 11]	6.35 ± 1.46	6.8	13 ± 0.97	2.4				
COc1ccc2sc3c([N+](=O)[O-])ccc(NCCCC4CCCN5CCCCC45)c3c(=O)c2c1 (centres unmarked) [Compound 12]	7.39 ± 2.31	5.85	7.89 ± 2.41	3.95				
Nc1ccc(NCC2CCCN3CCCCC23)c2c(=O)c3ccccc3sc12 (centres unmarked) [Compound 13]	2.87 ± 0.43	15.1	5.23 ± 1.83	6.0				
Nc1ccc(NCCCC2CCCN3CCCCC23)c2c(=O)c3ccccc3sc12 (centres unmarked) [Compound 15]	3.72 ± 1.66	11.6	4.22 ± 1.95	7.4				
Cc1ccc(NCC2CCCN3CCCCC23)c2c(=O)c3ccccc3oc12 (centres unmarked) [Compound 16]	6.56 ± 3.08	6.6	8.23 ± 1.51	3.8				
CCCCCCCCCCCCCCCCOP(=O)([O-])OCC[N+](C)(C)C [Miltefosine, reference compound]	43.3 ± 11.4	1.0		1.0				
